Laboratory results from the supplement of paper PMC12463676, “Small-molecule dissolution of stress granules by redox modulation benefits ALS models” (Nature Chemical Biology, 2025).

Experiments:
[1] = compound: O=[As]([O-])(O)O.[K+] [potassium arsenate]; assay: thermal stability z-score vs DMSO; higher = more thermally stabilized by treatment; details: HeLa; arsenate concentration 1 mM
Protocol: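 Cellular thermal proteome profiling in HeLa cells treated with 1 mM arsenate for 1 h (DMSO pretreatment), heated to ten temperatures (37-66.3 °C). Soluble protein was quantified by TMT mass spectrometry relative to DMSO controls; the thermal stability score was transformed to a z-score; mean of n = 3 experiments.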

[2] = compound: NC(=O)CCCCC1CCSS1 [lipoamide]; assay: as above; details: HeLa, lipoamide concentration 100 µM
Protocol: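 Cellular thermal proteome profiling in HeLa cells. Cells were treated with 100 µM lipoamide for 1 h, with or without 1 mM arsenate for a further 1 h, then heated to ten temperatures (37-66.3 °C), and soluble protein was quantified by TMT mass spectrometry relative to 0.1% DMSO controls. The thermal stability score (sum of log2 fold changes minus the abundance score) was transformed to a z-score; mean of n = 3 experiments.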

[3] = arsenate co-treatment: 1 mM arsenate 1 h
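Also: each temperature applied for 3 min, abundance score taken as mean log2 fold change at the two lowest temperatures, z-score obtained by mean subtraction and division by SD.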

Sequence of UniProt Q7Z6B7 (Q7Z6B7 whole entry): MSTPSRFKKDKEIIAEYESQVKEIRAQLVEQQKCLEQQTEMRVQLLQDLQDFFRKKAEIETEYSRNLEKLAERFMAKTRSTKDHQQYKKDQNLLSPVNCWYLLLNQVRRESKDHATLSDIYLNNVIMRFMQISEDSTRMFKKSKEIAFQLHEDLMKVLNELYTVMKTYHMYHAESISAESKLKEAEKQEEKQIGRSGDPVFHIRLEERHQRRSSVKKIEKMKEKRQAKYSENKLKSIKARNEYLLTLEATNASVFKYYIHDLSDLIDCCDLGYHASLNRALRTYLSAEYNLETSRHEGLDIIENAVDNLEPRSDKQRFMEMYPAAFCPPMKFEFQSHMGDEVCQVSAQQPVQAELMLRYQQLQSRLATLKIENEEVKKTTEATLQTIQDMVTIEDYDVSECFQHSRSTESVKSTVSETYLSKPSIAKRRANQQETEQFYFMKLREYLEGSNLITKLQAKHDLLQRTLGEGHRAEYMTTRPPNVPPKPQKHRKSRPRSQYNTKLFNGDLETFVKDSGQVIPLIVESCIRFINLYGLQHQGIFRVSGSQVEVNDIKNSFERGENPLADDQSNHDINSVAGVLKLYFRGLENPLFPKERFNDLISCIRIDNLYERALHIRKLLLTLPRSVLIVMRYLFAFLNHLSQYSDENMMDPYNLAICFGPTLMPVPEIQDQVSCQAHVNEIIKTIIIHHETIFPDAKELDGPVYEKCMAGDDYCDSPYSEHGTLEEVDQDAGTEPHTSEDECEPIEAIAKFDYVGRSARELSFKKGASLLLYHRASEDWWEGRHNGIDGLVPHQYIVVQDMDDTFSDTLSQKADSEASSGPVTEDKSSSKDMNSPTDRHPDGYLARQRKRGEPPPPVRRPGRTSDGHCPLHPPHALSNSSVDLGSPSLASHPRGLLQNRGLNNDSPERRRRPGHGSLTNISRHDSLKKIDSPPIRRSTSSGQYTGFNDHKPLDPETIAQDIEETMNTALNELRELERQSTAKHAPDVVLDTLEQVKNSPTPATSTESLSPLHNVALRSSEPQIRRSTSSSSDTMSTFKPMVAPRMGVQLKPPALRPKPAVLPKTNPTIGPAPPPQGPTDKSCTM
Sequence of UniProt Q9H2V7 (Q9H2V7 whole entry): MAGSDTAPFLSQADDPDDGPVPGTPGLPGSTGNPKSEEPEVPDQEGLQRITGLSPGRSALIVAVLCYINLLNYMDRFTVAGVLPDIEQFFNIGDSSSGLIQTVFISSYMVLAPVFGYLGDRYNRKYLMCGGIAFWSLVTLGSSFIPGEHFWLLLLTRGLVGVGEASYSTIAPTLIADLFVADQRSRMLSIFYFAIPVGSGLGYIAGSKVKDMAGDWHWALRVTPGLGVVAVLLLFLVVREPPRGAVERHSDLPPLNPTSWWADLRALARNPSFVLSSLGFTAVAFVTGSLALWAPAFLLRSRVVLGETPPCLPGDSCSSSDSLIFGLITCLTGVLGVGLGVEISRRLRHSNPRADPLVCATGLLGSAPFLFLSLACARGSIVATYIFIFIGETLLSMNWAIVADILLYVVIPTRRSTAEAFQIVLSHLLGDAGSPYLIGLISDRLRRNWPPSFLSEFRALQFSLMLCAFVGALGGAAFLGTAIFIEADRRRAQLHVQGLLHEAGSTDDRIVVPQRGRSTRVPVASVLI
Sequence of UniProt Q9NYA1 (Q9NYA1 whole entry): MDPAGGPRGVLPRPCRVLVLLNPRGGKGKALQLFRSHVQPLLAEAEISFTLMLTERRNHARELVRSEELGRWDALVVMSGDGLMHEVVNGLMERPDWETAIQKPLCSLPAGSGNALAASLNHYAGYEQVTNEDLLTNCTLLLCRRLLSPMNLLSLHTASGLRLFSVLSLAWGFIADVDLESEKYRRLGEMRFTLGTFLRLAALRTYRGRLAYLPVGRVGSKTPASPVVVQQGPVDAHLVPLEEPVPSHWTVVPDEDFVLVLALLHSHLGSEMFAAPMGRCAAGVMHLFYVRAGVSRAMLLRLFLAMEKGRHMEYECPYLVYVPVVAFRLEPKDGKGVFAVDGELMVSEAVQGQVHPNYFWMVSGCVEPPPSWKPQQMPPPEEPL
Sequence of UniProt Q9HD15 (Q9HD15 whole entry): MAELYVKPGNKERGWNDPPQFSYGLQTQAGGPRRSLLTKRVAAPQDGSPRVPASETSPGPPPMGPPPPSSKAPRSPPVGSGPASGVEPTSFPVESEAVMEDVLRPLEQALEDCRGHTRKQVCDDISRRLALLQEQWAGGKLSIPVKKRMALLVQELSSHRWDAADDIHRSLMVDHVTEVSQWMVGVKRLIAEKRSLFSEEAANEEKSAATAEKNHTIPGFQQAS
Sequence of UniProt Q8WW59 (Q8WW59 whole entry): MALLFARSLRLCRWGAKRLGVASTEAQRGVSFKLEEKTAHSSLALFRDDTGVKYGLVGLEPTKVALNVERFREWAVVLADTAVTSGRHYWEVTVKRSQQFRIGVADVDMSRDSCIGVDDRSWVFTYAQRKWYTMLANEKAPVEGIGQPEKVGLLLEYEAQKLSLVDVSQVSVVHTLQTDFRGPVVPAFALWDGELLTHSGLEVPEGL
Sequence of UniProt Q13813 (Q13813 whole entry): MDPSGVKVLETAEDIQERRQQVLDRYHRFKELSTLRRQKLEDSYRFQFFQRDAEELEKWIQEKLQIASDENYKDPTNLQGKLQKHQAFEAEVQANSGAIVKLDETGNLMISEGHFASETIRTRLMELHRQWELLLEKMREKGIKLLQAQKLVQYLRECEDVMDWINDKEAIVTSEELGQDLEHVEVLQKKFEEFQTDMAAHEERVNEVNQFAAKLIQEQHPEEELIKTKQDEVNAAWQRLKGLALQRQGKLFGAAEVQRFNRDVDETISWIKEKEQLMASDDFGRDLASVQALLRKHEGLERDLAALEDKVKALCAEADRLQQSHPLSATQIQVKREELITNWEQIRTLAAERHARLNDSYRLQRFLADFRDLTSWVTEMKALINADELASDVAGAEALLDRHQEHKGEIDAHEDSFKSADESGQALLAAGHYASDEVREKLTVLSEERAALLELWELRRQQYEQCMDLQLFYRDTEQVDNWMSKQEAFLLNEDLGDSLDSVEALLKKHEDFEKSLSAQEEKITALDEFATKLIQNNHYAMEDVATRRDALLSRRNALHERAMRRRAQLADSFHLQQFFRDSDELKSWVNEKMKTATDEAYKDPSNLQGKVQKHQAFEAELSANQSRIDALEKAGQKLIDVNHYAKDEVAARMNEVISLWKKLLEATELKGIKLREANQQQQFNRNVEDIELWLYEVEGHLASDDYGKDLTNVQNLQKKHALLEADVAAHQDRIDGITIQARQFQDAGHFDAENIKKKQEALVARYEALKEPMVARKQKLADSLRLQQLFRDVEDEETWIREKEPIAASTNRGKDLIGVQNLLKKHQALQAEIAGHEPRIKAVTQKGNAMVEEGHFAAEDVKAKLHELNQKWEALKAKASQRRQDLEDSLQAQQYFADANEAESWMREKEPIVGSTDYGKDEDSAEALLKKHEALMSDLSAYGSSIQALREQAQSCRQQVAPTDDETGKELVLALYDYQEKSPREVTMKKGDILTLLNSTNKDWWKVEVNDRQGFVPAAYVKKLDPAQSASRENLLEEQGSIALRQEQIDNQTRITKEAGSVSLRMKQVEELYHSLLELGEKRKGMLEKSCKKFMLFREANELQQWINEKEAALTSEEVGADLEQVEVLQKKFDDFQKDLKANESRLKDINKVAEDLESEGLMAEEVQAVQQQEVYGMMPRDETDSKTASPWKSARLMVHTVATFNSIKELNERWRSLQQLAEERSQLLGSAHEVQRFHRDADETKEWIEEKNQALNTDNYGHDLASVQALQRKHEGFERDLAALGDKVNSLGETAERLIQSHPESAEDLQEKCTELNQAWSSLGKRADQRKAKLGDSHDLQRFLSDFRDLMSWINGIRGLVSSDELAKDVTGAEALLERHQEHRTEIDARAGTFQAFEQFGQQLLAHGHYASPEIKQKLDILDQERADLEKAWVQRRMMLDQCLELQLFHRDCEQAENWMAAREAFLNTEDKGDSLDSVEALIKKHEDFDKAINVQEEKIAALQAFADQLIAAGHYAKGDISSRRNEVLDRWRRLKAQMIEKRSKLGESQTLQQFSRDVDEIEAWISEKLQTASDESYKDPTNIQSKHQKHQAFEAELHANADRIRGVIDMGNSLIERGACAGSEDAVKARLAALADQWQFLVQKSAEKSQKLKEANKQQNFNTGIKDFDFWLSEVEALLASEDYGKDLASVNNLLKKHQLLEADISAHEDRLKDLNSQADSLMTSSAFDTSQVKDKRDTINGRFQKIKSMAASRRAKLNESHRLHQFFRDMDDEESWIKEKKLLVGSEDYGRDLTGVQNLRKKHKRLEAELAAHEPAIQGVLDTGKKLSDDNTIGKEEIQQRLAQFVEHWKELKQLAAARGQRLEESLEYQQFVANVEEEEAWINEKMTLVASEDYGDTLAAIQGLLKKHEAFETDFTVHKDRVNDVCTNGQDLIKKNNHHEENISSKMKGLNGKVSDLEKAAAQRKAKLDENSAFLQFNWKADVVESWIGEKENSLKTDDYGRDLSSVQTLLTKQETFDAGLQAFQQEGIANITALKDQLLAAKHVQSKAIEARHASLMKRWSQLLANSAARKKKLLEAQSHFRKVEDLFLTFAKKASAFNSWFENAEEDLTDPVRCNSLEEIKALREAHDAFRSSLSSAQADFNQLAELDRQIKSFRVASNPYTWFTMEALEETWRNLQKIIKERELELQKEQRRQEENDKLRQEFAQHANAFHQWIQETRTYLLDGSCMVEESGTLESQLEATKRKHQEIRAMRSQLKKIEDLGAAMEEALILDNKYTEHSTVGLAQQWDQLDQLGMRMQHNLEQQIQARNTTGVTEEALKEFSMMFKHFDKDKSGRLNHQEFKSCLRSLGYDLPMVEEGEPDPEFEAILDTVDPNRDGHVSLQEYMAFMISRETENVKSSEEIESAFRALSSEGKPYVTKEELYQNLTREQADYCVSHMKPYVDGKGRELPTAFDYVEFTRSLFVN
Sequence of UniProt P09132 (P09132 whole entry): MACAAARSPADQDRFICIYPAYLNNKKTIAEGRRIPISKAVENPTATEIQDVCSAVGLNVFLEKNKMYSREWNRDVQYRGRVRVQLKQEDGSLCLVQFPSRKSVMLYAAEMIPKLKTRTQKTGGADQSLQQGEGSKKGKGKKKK

Target	thermal stability z-score [1]	thermal stability z-score [2, 3]	thermal stability z-score ([2]; arsenate co-treatment: none)
SPECC1 (UniProt Q5M775)	1.48	0.0376	0.504
SPECC1L (UniProt Q69YQ0)	1.47	1.12	1.43
SPG7 (UniProt Q9UQ90)	0.156	-0.126	-0.0687
SPG20 (UniProt Q8N0X7)	0.193	0.715	0.609
SPG21 (UniProt Q9NZD8)	0.634	-0.161	0.136
SPHK1 (UniProt Q9NYA1)	-0.0222	0.328	0.0728
SPIN1 (UniProt Q9Y657)	-0.0902	0.0956	0.212
SPNS1 (UniProt Q9H2V7)	0.547	-0.826	0.677
SPR (UniProt P35270)	1.36	1.28	0.634
SPRYD4 (UniProt Q8WW59)	1.75	2.66	2.54
SPRYD7 (UniProt Q5W111)	-0.339	0.397	0.0188
SPTAN1 (UniProt Q13813)	-1.44	0.768	0.506
SPTBN1 (UniProt Q01082)	-1.61	0.502	0.309
SPTLC1 (UniProt O15269)	0.833	-0.481	-0.72
SPTLC2 (UniProt O15270)	-0.25	-0.0734	-0.585
SQLE (UniProt Q14534)	0.26	0.647	1.27
SQRDL (UniProt Q9Y6N5)	-1.36	-0.541	-1.81
SQSTM1 (UniProt Q13501)	0.758	-0.226	-0.109

Target	thermal stability z-score [1]	thermal stability z-score [2, 3]	thermal stability z-score ([2]; arsenate co-treatment: none)
SRA1 (UniProt Q9HD15)	0.51	0.911	0.998
SREBF1 (UniProt P36956)	0.119	-0.33	0.0707
SREK1 (UniProt Q8WXA9)	0.00931	0.0164	0.0581
SRFBP1 (UniProt Q8NEF9)	0.756	-0.0373	-0.0723
SRGAP1 (UniProt Q7Z6B7)	-0.0461	-0.0604	-0.163
SRGAP2 (UniProt O75044)	0.309	-0.272	-0.287
SRGN (UniProt P10124)	-0.673	-0.234	0.0347
SRI (UniProt P30626)	0.177	1.28	0.78
SRM (UniProt P19623)	-0.141	-0.392	-0.0266
SRP9 (UniProt P49458)	-0.335	0.432	0.761
SRP14 (UniProt P37108)	-0.436	-0.152	-0.0661
SRP19 (UniProt P09132)	0.033	-0.296	-0.485
SRP54 (UniProt P61011)	0.715	-0.193	0.172
SRP68 (UniProt Q9UHB9)	0.344	-0.606	-0.27
SRP72 (UniProt O76094)	0.424	-0.316	-0.00987
SRPK1 (UniProt Q96SB4)	0.291	0.669	-0.433
SRPK2 (UniProt P78362)	0.168	0.467	-0.365
SRPRA (UniProt P08240)	0.545	-0.176	-0.208
